Read-outs that look alike come from different tables or passages of the source.
Columns and labels:
[1] = system: VSV-G pseudotyped HIV NL4-3; assay: microbe, parasite or virus in culture; format: cell-based
[2] = system: HBV; assay: Inhibition of HBV in HepG2.117 cells (anti-HBV activity, qPCR); format: cell-based; conditions: HBV viral DNA copy numbers in supernatant by qPCR
[3] = Human immunodeficiency virus 1, NL43, 72 h, read-out: HIV EC50 (uM)
[4] = Hepatitis B virus, HepG2.117, 96 h, Table 4 phosphoramidate prodrugs
[5] = Hepatitis B virus, HepG2.117, 96 h, Table 2 nucleosides

C=C1[C@@H](n2cnc3c(=O)[nH]c(N)nc32)C[C@H](O)[C@@]1(C#N)COP(=O)(N[C@@H](C)C(=O)OC(C)C)Oc1ccccc1 (single isomer, unassigned) [Example 43, Isopropyl ((R*)-(((1S,3S,5S)-3-(2-amino-6-oxo-1,6-dihydro-9H-purin-9-yl)-1-cyano-5-hydroxy-2-methylenecyclopentyl)methoxy)(phenoxy)phosphoryl)-L-alaninate]
EC50 ([1]; read-out: HIV EC50): 4.25 µM
EC50 ([2]; 96 h, Table 4 phosphoramidate prodrugs): 0.591 µM

C=C1[C@@H](n2cnc3c(=O)[nH]c(N)nc32)C[C@H](O)[C@@]1(C#N)COP(=O)(N[C@@H](C)C(=O)OC(C)C)Oc1ccccc1 (single isomer, unassigned) [Example 44, Isopropyl ((S*)-(((1S,3S,5S)-3-(2-amino-6-oxo-1,6-dihydro-9H-purin-9-yl)-1-cyano-5-hydroxy-2-methylenecyclopentyl)methoxy)(phenoxy)phosphoryl)-L-alaninate]
EC50 [1, 3]: 2.29 µM
EC50 [2, 4]: 0.459 µM

C=C1[C@@H](n2ccc3c(N)ncnc32)C[C@H](O)[C@@]1(F)CO [Example 1, (1S,2S,4S)-4-(4-Amino-7H-pyrrolo[2,3-d]pyrimidin-7-yl)-2-fluoro-2-(hydroxymethyl)-3-methylenecyclopentan-1-ol]
EC50 [2, 5]: 0.0109 µM

C=C1[C@H](CO)[C@@H](O)C[C@@H]1n1ccc2c(=O)[nH]c(N)nc21 [Example 2, 2-Amino-7-((1S,3R,4S)-4-hydroxy-3-(hydroxymethyl)-2-methylenecyclopentyl)-3,7-dihydro-4H-pyrrolo[2,3-d]pyrimidin-4-one]
EC50 [1, 3]: > 33.3 µM
EC50 [2, 5]: > 10 µM

C=C1[C@@H](n2cc(C)c(=O)[nH]c2=O)C[C@H](O)[C@@]1(F)CO [Example 3, 1-((1S,3S,4S)-3-Fluoro-4-hydroxy-3-(hydroxymethyl)-2-methylenecyclopentyl)-5-methylpyrimidine-2,4(1H,3H)-dione]
EC50 [1, 3]: > 33.3 µM
EC50 [2, 5]: > 10 µM

C=C1[C@@H](n2cnc3c(=O)[nH]c(N)nc32)C[C@H](O)[C@@]1(F)CO [Example 4, 2-Amino-9-((1S,3S,4S)-3-fluoro-4-hydroxy-3-(hydroxymethyl)-2-methylenecyclopentyl)-1,9-dihydro-6H-purin-6-one]
EC50 [1, 3]: 0.0356 µM
EC50 [2, 5]: < 0.0009 µM

C=C1[C@H](n2cnc3c(=O)[nH]c(N)nc32)C[C@H](O)[C@]1(F)CO [Example 5, 2-Amino-9-((1R,3R,4S)-3-fluoro-4-hydroxy-3-(hydroxymethyl)-2-methylenecyclopentyl)-1,9-dihydro-6H-purin-6-one]
EC50 [1, 3]: > 33.3 µM
EC50 [2, 5]: 2.47 µM

C=C1[C@@H](n2cnc3c(N)ncnc32)C[C@H](O)[C@@]1(F)CO [Example 6, (1S,2S,4S)-4-(6-Amino-9H-purin-9-yl)-2-fluoro-2-(hydroxymethyl)-3-methylenecyclopentan-1-ol]
EC50 [1, 3]: 2.68 µM
EC50 [2, 5]: 0.0617 µM

C=C1[C@H](n2cnc3c(N)ncnc32)C[C@H](O)[C@]1(F)CO [Example 7, (1S,2R,4R)-4-(6-Amino-9H-purin-9-yl)-2-fluoro-2-(hydroxymethyl)-3-methylenecyclopentan-1-ol]
EC50 [1, 3]: > 33.3 µM
EC50 [2, 5]: > 10 µM

C=C1[C@H](CO)[C@@H](O)C[C@@H]1n1ccc2c(N)ncnc21 [Example 9, (1S,2R,4S)-4-(4-Amino-7H-pyrrolo[2,3-d]pyrimidin-7-yl)-2-(hydroxymethyl)-3-methylenecyclopentan-1-ol]
EC50 [1, 3]: > 33.3 µM
EC50 [2, 5]: 7.41 µM

C=C1[C@@H](n2cnc3c(=O)[nH]c(N)nc32)C[C@H](O)[C@]1(CO)CF [Example 10, 2-Amino-9-((1S,3S,4S)-3-(fluoromethyl)-4-hydroxy-3-(hydroxymethyl)-2-methylenecyclopentyl)-1,9-dihydro-6H-purin-6-one]
EC50 [1, 3]: 0.662 µM
EC50 [2, 5]: 0.166 µM

C=C1[C@@H](n2ccc(N)nc2=O)C[C@H](O)[C@]1(CO)CF [Example 11, 4-Amino-1-((1S,3S,4S)-3-(fluoromethyl)-4-hydroxy-3-(hydroxymethyl)-2-methylenecyclopentyl)pyrimidin-2(1H)-one]
EC50 [1, 3]: 0.911 µM
EC50 [2, 5]: 9.18 µM

C=C1[C@@H](n2cc(C)c(=O)[nH]c2=O)C[C@H](O)[C@]1(CO)CF [Example 12, 1-((1S,3S,4S)-3-(fluoromethyl)-4-hydroxy-3-(hydroxymethyl)-2-methylenecyclopentyl)-5-methylpyrimidine-2,4(1H,3H)-dione]
EC50 [1, 3]: > 33.3 µM
EC50 [2, 5]: > 10 µM

C=C1[C@@H](n2cnc3c(N)ncnc32)C[C@H](O)[C@]1(CO)CF [Example 13, (1S,2S,4S)-4-(6-Amino-9H-purin-9-yl)-2-(fluoromethyl)-2-(hydroxymethyl)-3-methylenecyclopentan-1-ol]
EC50 [1, 3]: 5.02 µM
EC50 [2, 5]: > 5.53 µM

C=C1[C@@H](n2cnc3c(N)ncnc32)C[C@H](O)[C@]1(CO)CCl [Example 14, (1S,2S,4S)-4-(6-Amino-9H-purin-9-yl)-2-(chloromethyl)-2-(hydroxymethyl)-3-methylenecyclopentan-1-ol]
EC50 [1, 3]: 1.08 µM
EC50 [2, 5]: 3.45 µM

C=C1[C@@H](n2cc(C)c(=O)[nH]c2=O)C[C@H](O)[C@@]1(C#N)CO [Example 15, (1S,3S,5S)-5-Hydroxy-1-(hydroxymethyl)-3-(5-methyl-2,4-dioxo-3,4-dihydropyrimidin-1(2H)-yl)-2-methylenecyclopentane-1-carbonitrile]
EC50 [1, 3]: > 33.3 µM
EC50 [2, 5]: > 10 µM

C=C1[C@@H](n2ccc(N)nc2=O)C[C@H](O)[C@@]1(C#N)CO [Example 16, (1S,3S,5S)-3-(4-Amino-2-oxopyrimidin-1(2H)-yl)-5-hydroxy-1-(hydroxymethyl)-2-methylenecyclopentane-1-carbonitrile]
EC50 [1, 3]: 5.83 µM
EC50 [2, 5]: > 10 µM

C=C1[C@@H](n2cnc3c(N)ncnc32)C[C@H](O)[C@@]1(C#N)CO [Example 17, (1S,3S,5S)-3-(6-Amino-9H-purin-9-yl)-5-hydroxy-1-(hydroxymethyl)-2-methylenecyclopentane-1-carbonitrile]
EC50 [1, 3]: 2.21 µM
EC50 [2, 5]: > 10 µM

C=C1[C@@H](n2cnc3c(=O)[nH]c(N)nc32)C[C@H](O)[C@@]1(C#N)CO [Example 18, (1S,3S,5S)-3-(2-Amino-6-oxo-1,6-dihydro-9H-purin-9-yl)-5-hydroxy-1-(hydroxymethyl)-2-methylenecyclopentane-1-carbonitrile]
EC50 [1, 3]: 0.12 µM
EC50 [2, 5]: 0.0466 µM

C#C[C@]1(CO)C(=C)[C@@H](n2cnc3c(N)ncnc32)C[C@@H]1O [Example 19, (1S,2R,4S)-4-(6-Amino-9H-purin-9-yl)-2-ethynyl-2-(hydroxymethyl)-3-methylenecyclopentan-1-ol]
EC50 [1, 3]: 0.0665 µM
EC50 [2, 5]: > 10 µM

C=C[C@]1(CO)C(=C)[C@@H](n2cnc3c(N)ncnc32)C[C@@H]1O [Example 20, (1S,2R,4S)-4-(6-Amino-9H-purin-9-yl)-2-(hydroxymethyl)-3-methylene-2-vinylcyclopentan-1-ol]
EC50 [1, 3]: 0.547 µM
EC50 [2, 5]: > 10 µM

C#C[C@]1(COP(=O)(N[C@@H](C)C(=O)OC(C)C)Oc2ccccc2)C(=C)[C@@H](n2cnc3c(N)ncnc32)C[C@@H]1O (stereo partly drawn) [Example 38, Isopropyl ((((1R,3S,5S)-3-(6-amino-9H-purin-9-yl)-1-ethynyl-5-hydroxy-2-methylenecyclopentyl)methoxy)(phenoxy)phosphoryl)-L-alaninate]
EC50 [1, 3]: 0.0506 µM
EC50 [2, 4]: 2.37 µM

C=C1[C@@H](n2cnc3c(N)ncnc32)C[C@H](O)[C@@]1(F)COP(=O)(N[C@@H](C)C(=O)OCC(C)(C)C)Oc1ccccc1 (stereo partly drawn) [Example 39, Neopentyl ((((1S,3S,5S)-3-(6-amino-9H-purin-9-yl)-1-fluoro-5-hydroxy-2-methylenecyclopentyl)methoxy)(phenoxy)phosphoryl)-L-alaninate]
EC50 [1, 3]: 0.0139 µM
EC50 [2, 4]: 0.0003 µM

C=C1[C@@H](n2cnc3c(N)ncnc32)C[C@H](O)[C@@]1(CF)COP(=O)(N[C@@H](C)C(=O)OC(C)C)Oc1ccccc1 (stereo partly drawn) [Example 40, Isopropyl ((((1S,3S,5S)-3-(6-amino-9H-purin-9-yl)-1-(fluoromethyl)-5-hydroxy-2-methylenecyclopentyl)methoxy)(phenoxy)phosphoryl)-L-alaninate]
EC50 [1, 3]: 0.144 µM
EC50 [2, 4]: 0.0137 µM

C=C1[C@@H](n2cc(C)c(=O)[nH]c2=O)C[C@H](O)[C@@]1(C#N)COP(=O)(N[C@@H](C)C(=O)OC(C)C)Oc1ccccc1 (stereo partly drawn) [Example 41, Isopropyl ((((1S,3S,5S)-1-cyano-5-hydroxy-3-(5-methyl-2.4-dioxo-3.4-dihydropyrimidin-1(2H)-yl)-2-methylenecyclopentyl)methoxy)(phenoxy)phosphoryl)-L-alaninate]
EC50 [1, 3]: 10.2 µM
EC50 [2, 4]: > 10 µM

C=C1[C@@H](n2ccc(N)nc2=O)C[C@H](O)[C@@]1(C#N)COP(=O)(N[C@@H](C)C(=O)OC(C)C)Oc1ccccc1 (stereo partly drawn) [Example 42, Isopropyl ((((1S,3S,5S)-3-(4-amino-2-oxopyrimidin-1(2H)-yl)-1-cyano-5-hydroxy-2-methylenecyclopentyl)methoxy)(phenoxy)phosphoryl)-L-alaninate]
EC50 [1, 3]: 10.4 µM
EC50 [2, 4]: > 10 µM
